Series [1] is described as follows: Stability test (solid change) by DSC measurement. Type of series: physicochemical. The following applies: crystals, 10° C./min, room temperature to 300° C. The protocol: The DSC measurement was conducted according to the following test conditions. • Equipment: TA Instruments Q1000 • Sample: about 5 mg • Rate of temperature increase: 10° C./min • Measurement temperature: Room temperature to 300° C.

The nature of series [2]: Dynamic vapor sorption system (DVS) analysis (hygroscopicity). Type of series: physicochemical. Conditions: increase of humidity from 5% to 75% RH, 25° C. On the procedure: The dynamic vapor sorption system (DVS) analysis was conducted under the following conditions. • Equipment: TA Instruments VTI SGA-100 • Sample: about 10 mg • Measurement temperature: 25° C. • RH steps: 5-95-1% RH by 5% RH
The hygroscopicity of the hydrochloride salt of Compound 1 obtained in Example 1 and the potassium salt obtained in Comparative Example 2 was examined by dynamic vapor sorption system (DVS) analysis. The adsorption and desorption data was collected at 5% relative humidity (RH) intervals in the range of 5% to 95% RH. Before the measurement, the temperature was increased at 1° C./min to 25° C. under nitrogen purging and the salts were dried for up to 6 hours until the weight change in 5 minutes became less than 0.0100%. At the time of the measurement, up to 2 hours of equilibration was conducted until the weight change in 5 minutes became less than 0.0100%.

Series [3] is described as follows: Solubility measurement, Japanese Pharmacopoeia Dissolution test. Type of series: physicochemical. Conditions: crystals; for solubility, 1st fluid for dissolution test: Japanese Pharmacopoeia 1st fluid for dissolution test; for solubility, 2nd fluid for dissolution test: Japanese Pharmacopoeia 2nd fluid for dissolution test. The protocol:
The solubility measurement was conducted on the hydrochloride salt, the mesylate salt, the potassium salt, and the sodium salt of Compound 1 and the free form of Compound 1. Specifically, the solubility of the samples: the crystals of the hydrochloride salt of Compound 1 produced in Example 1; the crystals of the mesylate salt of Compound 1 produced in Comparative Example 1; the crystals of the potassium salt of Compound 1 produced in Comparative Example 2; the crystals of the sodium salt of Compound 1 produced in Comparative Example 3; and the crystal of the free form of Compound 1, in the 1st and 2nd fluids for dissolution test according to Japanese Pharmacopoeia was measured according to Japanese Pharmacopoeia, Dissolution test.

A short description of series [4]: Stability test (purity) by liquid chromatography after storage. Type of series: physicochemical. The following applies: for purity (%) in samples, 40° C. (open system): crystals left at 40° C. (open system) for 1 month; for purity (%) in samples, 60° C. (open system): crystals left at 60° C. (open system) for 1 month; for purity (%) in samples, under light irradiation: crystals left under light irradiation (1200000 Lux·hr) for 1 month; for purity (%) in samples, before starting test: crystals. The protocol: The measurement by liquid chromatography was conducted according to the following test conditions. • Equipment: Agilent Technologies, Inc., 1200 Series Binary LC System • Mobile phase A: 10 mM Na2HPO4 aqueous solution (pH 6.5) • Mobile phase B: Acetonitrile • Gradient: described in Table 1 • Column: Ascentis Express C18, 150 mm×4.6 mm i.d., 2.7 μm • Measurement wavelength: 210 nm
The crystals of the hydrochloride salt, the mesylate salt, the potassium salt, the sodium salt, and the free form of Compound 1 obtained in Example 1 and Comparative Examples 1 to 4 were each left under conditions at 40° C. (open system), at 60° C. (open system), and under light irradiation (1200000 Lux·hr) for 1 month. Subsequent measurement of purity by liquid chromatography indicated the purity change between before and after the test was 0.2% or less in any of the conditions.

Series [5] in a line: Absorption test, oral administration to mice, plasma concentration by LC/MS. The series is classed as in vivo. The following applies: BALB/cA mice, 50 mg/kg in terms of Compound 1, suspended in 0.5% HPMC. The protocol: The hydrochloride salt of Compound 1 was suspended in 0.5% HPMC, and orally administered to BALB/cA mice at 50 mg/kg in terms of the dose of Compound 1. At 0.5, 1, 2, 4, and 6 hours after the oral administration, the blood was collected from the eyeground, and the plasma was obtained. The compound concentration in the obtained plasma was measured by LC/MS (Agilent Technologies Inc. Agilent 1200, AB Sciex Pte. Ltd. AB Sciex API400) and the oral absorption was evaluated.

Structures can show the parent of a compound that is named as a salt. Where only a bound is given, the exact number is not on record here.

Consider 5 molecules from US11028069B2, “Salt of substituted piperidine compound” (TAIHO PHARMACEUTICAL CO., LTD., priority 2016, dated 2021).

On to `Cc1cc(Nc2nc(CC3(C(=O)O)CCN(C(=O)c4cccc(Cl)c4Cl)CC3)ccc2F)n[nH]1` [Sodium salt, 1-(2,3-dichlorobenzoyl)-4-((5-fluoro-6-(5-methyl-1H-pyrazol-3-ylamino)pyridin-2-yl)methyl)piperidine-4-carboxylic acid], for which, in series [1], the “DSC chart: endothermic and exothermic processes at relatively low temperatures (solid change)” value is “charts suggesting endothermic and exothermic processes at relatively low temperatures were obtained”. In series [2] (listed as sodium salt of Compound 1), the “weight change in DVS analysis” value was not below 40%. Besides, in series [3], the “solubility, 1st fluid for dissolution test” value (“solubility, 1st fluid” for short) is more than 1000 µg/mL and the “solubility, 2nd fluid for dissolution test” value (“solubility, 2nd fluid” below) was more than 1000 µg/mL.
Consider `Cc1cc(Nc2nc(CC3(C(=O)O)CCN(C(=O)c4cccc(Cl)c4Cl)CC3)ccc2F)n[nH]1` [Potassium salt, 1-(2,3-dichlorobenzoyl)-4-((5-fluoro-6-(5-methyl-1H-pyrazol-3-ylamino)pyridin-2-yl)methyl)piperidine-4-carboxylic acid], for which, in series [4], the “purity (%) in samples, 40° C. (open system)” value is given as 99.7%; the “purity (%) in samples, 60° C. (open system)” value was 99.8%; the “purity (%) in samples, under light irradiation” value is 99.8%; the “purity (%) in samples, before starting test” value is 99.8%. In series [1], the “DSC chart: endothermic and exothermic processes at relatively low temperatures (solid change)” value is “charts suggesting endothermic and exothermic processes at relatively low temperatures were obtained”. Moreover, in series [2], the “weight change in DVS analysis” value is “exceeded 14%”. Moreover, in series [3], the “solubility, 1st fluid” value is more than 1000 µg/mL and the “solubility, 2nd fluid” value came out at 730 µg/mL.
With `Cc1cc(Nc2nc(CC3(C(=O)O)CCN(C(=O)c4cccc(Cl)c4Cl)CC3)ccc2F)n[nH]1` [Mesylate salt, 1-(2,3-dichlorobenzoyl)-4-((5-fluoro-6-(5-methyl-1H-pyrazol-3-ylamino)pyridin-2-yl)methyl)piperidine-4-carboxylic acid], in series [1], the “DSC chart: endothermic and exothermic processes at relatively low temperatures (solid change)” value was “such charts were not obtained”. Also, in series [3], the “solubility, 1st fluid” value came to 490 µg/mL and the “solubility, 2nd fluid” value was 420 µg/mL.
As to `Cc1cc(Nc2nc(CC3(C(=O)O)CCN(C(=O)c4cccc(Cl)c4Cl)CC3)ccc2F)n[nH]1` [Hydrochloride salt, 1-(2,3-dichlorobenzoyl)-4-((5-fluoro-6-(5-methyl-1H-pyrazol-3-ylamino)pyridin-2-yl)methyl)piperidine-4-carboxylic acid], in series [4], the “purity (%) in samples, 40° C. (open system)” value was found to be 99.2%; the “purity (%) in samples, 60° C. (open system)” value turned out to be 99.3%; the “purity (%) in samples, under light irradiation” value was 99.4%; the “purity (%) in samples, before starting test” value is 99.4%. Moreover, the “Plasma concentration AUC0-6 h” value in series [5] was 18.2 µM·h. Besides, the “DSC chart: endothermic and exothermic processes at relatively low temperatures (solid change)” value in series [1] is listed as “such charts were not obtained”. The “weight change in DVS analysis” value in series [2] (listed as hydrochloride salt of Compound 1) was “less than 0.5%”. Moreover, the “weight change in DVS analysis” value in series [2] (listed as hydrochloride salt of the present invention) was “less than 0.5%”. Besides, in series [3], the “solubility, 1st fluid” value is more than 1000 µg/mL and the “solubility, 2nd fluid” value was more than 1000 µg/mL.
As for `Cc1cc(Nc2nc(CC3(C(=O)O)CCN(C(=O)c4cccc(Cl)c4Cl)CC3)ccc2F)n[nH]1` [Free form, 1-(2,3-dichlorobenzoyl)-4-((5-fluoro-6-(5-methyl-1H-pyrazol-3-ylamino)pyridin-2-yl)methyl)piperidine-4-carboxylic acid], in series [5], the “Plasma concentration AUC0-6 h” value turned out to be 0.43 µM·h. For the same molecule, in series [1], the “DSC chart: endothermic and exothermic processes at relatively low temperatures (solid change)” value is given as “such charts were not obtained”. Further, in series [3], the “solubility, 1st fluid” value turned out to be 24 µg/mL and the “solubility, 2nd fluid” value was 6 µg/mL.
